These are literature values, as cited in patent US9290518B2, “Water soluble metal-organic frameworks (MOFs)” (Council of Scientific and Industrial Research, priority 2011, dated 2016).

The conditions of the data set: 25° C., 98% RH, literature.

For the compound `O=C1N2CN3C(=O)N4CN5C(=O)N6CN7C(=O)N8CN9C(=O)N%10CN%11C(=O)N%12CN1C1C2N2CN%13C(=O)N(CN%14C(=O)N(CN%15C(=O)N(CN%16C(=O)N(CN%17C(=O)N(CN1C2=O)C%12C%11%17)C%10C9%16)C8C7%15)C6C5%14)C4C3%13` (stereo not shown) [cucurbit [6]uril], the proton conductivity is 1.1×10^−3 S cm^−1.
